Measurements: ChEMBL document CHEMBL1151671, “Cytotoxic oxygenated desmosterols of the red alga Galaxaura marginata” (1996)
In brackets after ≈: the same amount, converted by molar mass.

Legend:
Format in all cases: functional
Conditions in all cases: read-out: ED50 (the source's name)
[1] = tested on: P388; experiment: Cytotoxicity against mouse P388 cells by MTT assay
[2] = tested on: KB; experiment: Cytotoxicity against human KB cells by MTT assay
[3] = tested on: A549; experiment: Cytotoxicity against human A549 cells by MTT assay
[4] = tested on: HT-29; experiment: Cytotoxicity against human HT29 cells by MTT assay

Compound | EC50 [1] [µg/mL] | EC50 [2] [µg/mL] | EC50 [3] [µg/mL] | EC50 [4] [µg/mL]
C=C(C)C(CC[C@@H](C)[C@H]1CC[C@H]2[C@@H]3CC=C4C[C@@H](O)CC[C@]4(C)[C@H]3CC[C@]12C)OO (stereo partly specified) | 0.26 (≈ 0.624 µM) | 0.33 (≈ 0.792 µM) | 0.64 (≈ 1.54 µM) | 0.43 (≈ 1.03 µM)
C[C@H](C/C=C/C(C)(C)OO)[C@H]1CC[C@H]2[C@@H]3CC=C4C[C@@H](O)CC[C@]4(C)[C@H]3CC[C@]12C | 0.22 (≈ 0.528 µM) | – | – | –
C[C@H](C/C=C/C(C)(C)O)[C@H]1CC[C@H]2[C@@H]3CC=C4C[C@@H](O)CC[C@]4(C)[C@H]3CC[C@]12C | 0.15 (≈ 0.374 µM) | 0.61 (≈ 1.52 µM) | 1.08 (≈ 2.7 µM) | 0.6 (≈ 1.5 µM)
C=C(C)C(O)CC[C@@H](C)[C@H]1CC[C@H]2[C@@H]3CC=C4C[C@@H](O)CC[C@]4(C)[C@H]3CC[C@]12C (stereo partly specified) | 0.36 (≈ 0.899 µM) | 0.67 (≈ 1.67 µM) | 1.61 (≈ 4.02 µM) | 0.37 (≈ 0.924 µM)
C[C@H](CCC1OC1(C)C)[C@H]1CC[C@H]2[C@@H]3C[C@@H](O)C4=CC(=O)CC[C@]4(C)[C@H]3CC[C@]12C (mixture of isomers) | 0.75 | 0.3 | 3.14 | 0.87
CC(C)=CCC[C@@H](C)[C@H]1CC[C@H]2[C@@H]3CC=C4C[C@@H](O)CC[C@]4(C)[C@H]3CC[C@]12C [DESMOSTEROL] | 33.5 (≈ 87.2 µM) | > 50 | > 50 | > 50
